Source: article PMC4450297, “Screening Active Compounds from Garcinia Species Native to China Reveals Novel Compounds Targeting the STAT/JAK Signaling Pathway” (BioMed Research International, 2015)

Tests used:
Assay in all cases: Cell panel screen (CellTiter-Glo)
Assay type in all cases: cell-based, human
[1] = test system: A498; settings: A498 (listed under Lung), 20 micromolar, 72 hrs
Method: (§1) All cells were obtained from the cell bank of the American Type Culture Collection (ATCC) and cultured in the supplier's recommended media supplemented with 10% FBS. The cell panel screen was measured using the CellTiter-Glo assay (Promega, Madison, WI) following a standard protocol. Briefly, cancer cells were seeded in 96-well plates and cultured overnight at 37°C with or without 5% CO2 in an incubator. Each compound was dissolved with limited DMSO and diluted to a certain concentration with culture medium and then added to the corresponding well of the cell plate. The final concentration of compound was 20 μM. The control cells (without treatment) received the same amount of DMSO and were incubated under the same conditions. After 72 h cultivation, 100 μL of the CellTiter-Glo reagent was added directly to each well for 10-minute incubation. The plate was then read on a FlexStation 3 microplate luminometer (Molecular Devices, USA) to monitor the luminescence signal generated by the luciferase-catalyzed reaction of luciferin and ATP. The percent of growth inhibition was calculated using the following formula: (untreated cells − treated cells)/(untreated cells − background without cells) ∗ 100.

[2] = test system: A704; settings: A704 (Kidney), 20 micromolar, 72 hrs
Method: as §1

[3] = test system: BT-474; settings: BT-474 (Breast), 20 micromolar, 72 hrs
Method: as §1

[4] = test system: BT-549; settings: BT-549 (Breast), 20 micromolar, 72 hrs
Method: as §1

[5] = test system: Bel-7402; settings: Bel-7402 (Liver), 20 micromolar, 72 hrs
Method: as §1

[6] = test system: C3A; settings: C3A (Liver), 20 micromolar, 72 hrs
Method: as §1

[7] = test system: C8166; settings: C8166 (Leukemia), 20 micromolar, 72 hrs
Method: as §1

[8] = test system: CCF-STTG1; settings: CCF-STTG1 (Brain), 20 micromolar, 72 hrs
Method: as §1

[9] = test system: CW-2; settings: CW-2 (Colon), 20 micromolar, 72 hrs
Method: as §1

[10] = test system: ChaGo-K-1; settings: ChaGo-K-1 (Lung), 20 micromolar, 72 hrs
Method: as §1

[11] = test system: Colo 205; settings: Colo 205, 20 micromolar, 72 hrs
Method: as §1

[12] = test system: HCC1395; settings: HCC1395 (Breast), 20 micromolar, 72 hrs
Method: as §1

[13] = test system: HCC1569; settings: HCC1569 (Breast), 20 micromolar, 72 hrs
Method: as §1

[14] = test system: HCC1599; settings: HCC1599 (Breast), 20 micromolar, 72 hrs
Method: as §1

[15] = test system: HCC1937; settings: HCC1937 (Breast), 20 micromolar, 72 hrs
Method: as §1

[16] = test system: HEC-1-A; settings: HEC-1-A (Uterus), 20 micromolar, 72 hrs
Method: as §1

[17] = test system: HGC-27; settings: HGC-27 (Stomach), 20 micromolar, 72 hrs
Method: as §1

[18] = test system: HPAF-II; settings: HPAF-II (Pancreas), 20 micromolar, 72 hrs
Method: as §1

[19] = test system: HT-1197; settings: HT-1197 (Urinary bladder), 20 micromolar, 72 hrs
Method: as §1

[20] = test system: J82; settings: J82 (Urinary bladder), 20 micromolar, 72 hrs
Method: as §1

[21] = test system: M059J; settings: M059J (Brain), 20 micromolar, 72 hrs
Method: as §1

[22] = test system: MSTO-211-H; settings: MSTO-211-H (Lung), 20 micromolar, 72 hrs
Method: as §1

[23] = test system: NCI-H1623; settings: NCI-H1623 (Lung), 20 micromolar, 72 hrs
Method: as §1

[24] = test system: NCI-H1694; settings: NCI-H1694 (Lung), 20 micromolar, 72 hrs
Method: as §1

[25] = test system: NCI-H1770; settings: NCI-H1770 (Lung), 20 micromolar, 72 hrs
Method: as §1

[26] = test system: NCI-H2347; settings: NCI-H2347 (Lung), 20 micromolar, 72 hrs
Method: as §1

[27] = test system: NCI-H2405; settings: NCI-H2405 (Lung), 20 micromolar, 72 hrs
Method: as §1

[28] = test system: NCI-H28; settings: NCI-H28 (Lung), 20 micromolar, 72 hrs
Method: as §1

[29] = test system: NCI-H524; settings: NCI-H524 (Lung), 20 micromolar, 72 hrs
Method: as §1

[30] = test system: Panc 03.27; settings: Panc 03.27 (Pancreas), 20 micromolar, 72 hrs
Method: as §1

[31] = test system: RL95; settings: RL95 (Uterus), 20 micromolar, 72 hrs
Method: as §1

[32] = test system: SW13; settings: SW13 (Adrenal gland), 20 micromolar, 72 hrs
Method: as §1

[33] = test system: T47D; settings: T47D (Breast), 20 micromolar, 72 hrs
Method: as §1

[34] = test system: T98G; settings: T98G (Brain), 20 micromolar, 72 hrs
Method: as §1

[35] = test system: TCCSUP; settings: TCCSUP (Urinary bladder), 20 micromolar, 72 hrs
Method: as §1

[36] = test system: ZR-75-30; settings: ZR-75-30 (Breast), 20 micromolar, 72 hrs
Method: as §1

| Structure (SMILES) | Percent Inhibition [1] [%] | Percent Inhibition [2] [%] | Percent Inhibition [3] [%] | Percent Inhibition [4] [%] | Percent Inhibition [5] [%] | Percent Inhibition [6] [%] | Percent Inhibition [7] [%] | Percent Inhibition [8] [%] | Percent Inhibition [9] [%] | Percent Inhibition [10] [%] | Percent Inhibition [11] [%] | Percent Inhibition [12] [%] | Percent Inhibition [13] [%] | Percent Inhibition [14] [%] | Percent Inhibition [15] [%] | Percent Inhibition [16] [%] | Percent Inhibition [17] [%] | Percent Inhibition [18] [%] | Percent Inhibition [19] [%] | Percent Inhibition [20] [%] | further results |
| --- | --- | --- | --- | --- | --- | --- | --- | --- | --- | --- | --- | --- | --- | --- | --- | --- | --- | --- | --- | --- | --- |
| O=c1c2ccc(O)c(O)c2oc2cccc(O)c12 [gl-23] | 3 | -11 | -16 | -16 | -16 | -1 | -1 | -1 | -3 | -22 | -5 | -11 | 0 | 18 | -1 | -6 | -6 | -5 | -11 | -2 | Percent Inhibition [21]: -5%; Percent Inhibition [22]: -25%; Percent Inhibition [23]: 0%; Percent Inhibition [24]: -9%; Percent Inhibition [25]: -11%; Percent Inhibition [26]: -8%; Percent Inhibition [27]: -14%; Percent Inhibition [28]: -10%; Percent Inhibition [29]: -30%; Percent Inhibition [30]: -5%; Percent Inhibition [31]: -20%; Percent Inhibition [32]: -10%; Percent Inhibition [33]: -4%; Percent Inhibition [34]: -2%; Percent Inhibition [35]: -5%; Percent Inhibition [36]: 16% |
| COc1c(CC=C(C)C)c(O)c2c(=O)c3ccc(O)c(O)c3oc2c1CC=C(C)C [gl-9] | 86 | 88 | 94 | 96 | 96 | 77 | 96 | 92 | 99 | 97 | 97 | 98 | 93 | 95 | 94 | 85 | 97 | 85 | 97 | 99 | Percent Inhibition [21]: 92%; Percent Inhibition [22]: 98%; Percent Inhibition [23]: 85%; Percent Inhibition [24]: 100%; Percent Inhibition [25]: 93%; Percent Inhibition [26]: 82%; Percent Inhibition [27]: 93%; Percent Inhibition [28]: 86%; Percent Inhibition [29]: 99%; Percent Inhibition [30]: 92%; Percent Inhibition [31]: 98%; Percent Inhibition [32]: 99%; Percent Inhibition [33]: 90%; Percent Inhibition [34]: 98%; Percent Inhibition [35]: 96%; Percent Inhibition [36]: 99% |
